Assay results as given in the NIST ThermoML archive (doi:10.1016/j.jct.2018.08.013).
Where “and” joins values, the source holds several entries; their conditions need not be identical. Identical values can stand only once.

How the values were obtained:
[1] = xn = mol fraction of the nth substance listed; conditions: 298 K; 100 kPa; Crystal of intercomponent compound 1; X-ray diffraction; x2 = 0.493
[2] = specific heat capacity at constant pressure; xn = mol fraction of the nth substance listed; conditions: 100 kPa, Crystal of intercomponent compound 1, x2 = 0.493

[S] [sulfur] + [Ga]
Conditions | mass density [kg/m3]
[1] | 3910

[2]
Conditions | specific heat capacity
18.16 K, relaxation calorimetry | 12.05 J/K/kg
18.18 K, relaxation calorimetry | 12.12 J/K/kg
20.17 K, relaxation calorimetry | 16.52 J/K/kg
20.2 K, relaxation calorimetry | 16.6 J/K/kg
22.19 K, relaxation calorimetry | 21.61 J/K/kg
22.22 K, relaxation calorimetry | 21.71 J/K/kg and 21.72 J/K/kg
24.21 K, relaxation calorimetry | 27.33 J/K/kg
24.24 K, relaxation calorimetry | 27.43 J/K/kg and 27.44 J/K/kg
26.24 K, relaxation calorimetry | 33.49 J/K/kg
26.26 K, relaxation calorimetry | 33.58 J/K/kg
28.24 K, relaxation calorimetry | 39.83 J/K/kg
28.26 K, relaxation calorimetry | 39.94 J/K/kg
28.27 K, relaxation calorimetry | 39.95 J/K/kg
30.29 K, relaxation calorimetry | 46.52 J/K/kg and 46.51 J/K/kg
35.28 K, relaxation calorimetry | 63.34 J/K/kg
35.34 K, relaxation calorimetry | 63.61 J/K/kg and 63.51 J/K/kg
40.32 K, relaxation calorimetry | 80.08 J/K/kg
40.39 K, relaxation calorimetry | 80.21 J/K/kg
40.4 K, relaxation calorimetry | 80.32 J/K/kg
45.38 K, relaxation calorimetry | 96.1 J/K/kg
45.44 K, relaxation calorimetry | 96.06 J/K/kg
45.46 K, relaxation calorimetry | 96.26 J/K/kg
50.44 K, relaxation calorimetry | 111.7 J/K/kg
50.47 K, relaxation calorimetry | 111.6 J/K/kg
50.51 K, relaxation calorimetry | 111.7 J/K/kg
55.47 K, relaxation calorimetry | 126.24 J/K/kg
55.51 K, relaxation calorimetry | 125.95 J/K/kg
55.55 K, relaxation calorimetry | 126.24 J/K/kg
60.51 K, relaxation calorimetry | 140.09 J/K/kg
60.55 K, relaxation calorimetry | 139.99 J/K/kg
60.58 K, relaxation calorimetry | 139.99 J/K/kg
65.57 K, relaxation calorimetry | 154.14 J/K/kg
65.59 K, relaxation calorimetry | 154.04 J/K/kg
65.63 K, relaxation calorimetry | 154.04 J/K/kg
70.62 K, relaxation calorimetry | 167.6 J/K/kg
70.63 K, relaxation calorimetry | 167.6 J/K/kg
70.66 K, relaxation calorimetry | 167.5 J/K/kg
75.65 K, relaxation calorimetry | 180.57 J/K/kg
75.68 K, relaxation calorimetry | 180.86 J/K/kg
75.7 K, relaxation calorimetry | 180.47 J/K/kg
80.7 K, relaxation calorimetry | 194.32 J/K/kg
80.73 K, relaxation calorimetry | 194.42 J/K/kg
80.74 K, relaxation calorimetry | 194.32 J/K/kg
85.74 K, relaxation calorimetry | 207.39 J/K/kg
85.77 K, relaxation calorimetry | 207.39 J/K/kg
85.78 K, relaxation calorimetry | 207.39 J/K/kg
90.77 K, relaxation calorimetry | 220.55 J/K/kg
90.8 K, relaxation calorimetry | 220.26 J/K/kg and 220.45 J/K/kg
95.75 K, relaxation calorimetry | 232.24 J/K/kg
95.79 K, relaxation calorimetry | 231.95 J/K/kg
95.82 K, relaxation calorimetry | 231.85 J/K/kg
100.8 K, relaxation calorimetry | 243.64 J/K/kg
100.86 K, relaxation calorimetry | 242.85 J/K/kg
100.91 K, relaxation calorimetry | 243.05 J/K/kg
106.88 K, relaxation calorimetry | 257.1 J/K/kg and 257.39 J/K/kg
107.03 K, relaxation calorimetry | 256.21 J/K/kg
113.66 K, relaxation calorimetry | 272.42 J/K/kg
113.82 K, relaxation calorimetry | 273.11 J/K/kg
113.94 K, relaxation calorimetry | 271.54 J/K/kg
120.64 K, relaxation calorimetry | 286.47 J/K/kg
120.83 K, relaxation calorimetry | 286.96 J/K/kg
120.89 K, relaxation calorimetry | 285.1 J/K/kg
127.82 K, relaxation calorimetry | 298.56 J/K/kg
127.84 K, relaxation calorimetry | 298.36 J/K/kg
134.78 K, relaxation calorimetry | 310.93 J/K/kg
134.8 K, relaxation calorimetry | 310.34 J/K/kg
134.81 K, relaxation calorimetry | 310.25 J/K/kg
141.61 K, relaxation calorimetry | 324 J/K/kg
141.75 K, relaxation calorimetry | 322.43 J/K/kg
141.83 K, relaxation calorimetry | 321.94 J/K/kg
148.61 K, relaxation calorimetry | 333.53 J/K/kg
148.72 K, relaxation calorimetry | 332.15 J/K/kg
148.84 K, relaxation calorimetry | 330.48 J/K/kg
155.54 K, relaxation calorimetry | 342.37 J/K/kg
155.64 K, relaxation calorimetry | 340.7 J/K/kg
155.72 K, relaxation calorimetry | 339.33 J/K/kg
162.61 K, relaxation calorimetry | 350.82 J/K/kg
162.66 K, relaxation calorimetry | 349.74 J/K/kg
162.73 K, relaxation calorimetry | 349.64 J/K/kg
169.57 K, relaxation calorimetry | 360.25 J/K/kg
169.65 K, relaxation calorimetry | 358.19 J/K/kg
169.72 K, relaxation calorimetry | 359.07 J/K/kg
176.58 K, relaxation calorimetry | 367.72 J/K/kg
176.67 K, relaxation calorimetry | 367.72 J/K/kg
176.69 K, relaxation calorimetry | 362.51 J/K/kg
183.46 K, relaxation calorimetry | 377.05 J/K/kg
183.56 K, relaxation calorimetry | 375.87 J/K/kg
183.6 K, relaxation calorimetry | 370.67 J/K/kg
190.49 K, relaxation calorimetry | 383.83 J/K/kg
190.59 K, relaxation calorimetry | 383.53 J/K/kg
190.65 K, relaxation calorimetry | 378.13 J/K/kg
197.48 K, relaxation calorimetry | 388.94 J/K/kg
197.53 K, relaxation calorimetry | 389.63 J/K/kg
197.63 K, relaxation calorimetry | 385.2 J/K/kg
204.39 K, relaxation calorimetry | 394.64 J/K/kg
204.41 K, relaxation calorimetry | 396.21 J/K/kg
204.53 K, relaxation calorimetry | 392.18 J/K/kg
211.42 K, relaxation calorimetry | 400.83 J/K/kg
211.46 K, relaxation calorimetry | 401.71 J/K/kg
211.56 K, relaxation calorimetry | 397.19 J/K/kg
218.3 K, relaxation calorimetry | 405.64 J/K/kg
218.34 K, relaxation calorimetry | 407.41 J/K/kg
218.45 K, relaxation calorimetry | 402.99 J/K/kg
225.38 K, relaxation calorimetry | 410.35 J/K/kg and 412.32 J/K/kg
225.51 K, relaxation calorimetry | 408.68 J/K/kg
232.24 K, relaxation calorimetry | 414.68 J/K/kg and 416.64 J/K/kg
232.38 K, relaxation calorimetry | 412.81 J/K/kg
239.31 K, relaxation calorimetry | 418.61 J/K/kg and 420.57 J/K/kg
239.44 K, relaxation calorimetry | 416.94 J/K/kg
246.17 K, relaxation calorimetry | 422.44 J/K/kg
246.31 K, relaxation calorimetry | 420.96 J/K/kg
253.25 K, relaxation calorimetry | 426.56 J/K/kg
253.26 K, relaxation calorimetry | 424.99 J/K/kg
253.37 K, relaxation calorimetry | 424.7 J/K/kg
260.11 K, relaxation calorimetry | 428.53 J/K/kg and 430.1 J/K/kg
260.22 K, relaxation calorimetry | 427.94 J/K/kg
260.51 K, Extra sensitive DSC | 429.81 J/K/kg
263.12 K, Extra sensitive DSC | 432.26 J/K/kg
265.73 K, Extra sensitive DSC | 432.66 J/K/kg
267.18 K, relaxation calorimetry | 432.16 J/K/kg and 433.25 J/K/kg
267.28 K, relaxation calorimetry | 431.28 J/K/kg
268.33 K, Extra sensitive DSC | 434.33 J/K/kg
270.07 K, Extra sensitive DSC | 435.41 J/K/kg
273.54 K, Extra sensitive DSC | 436.78 J/K/kg
274.03 K, relaxation calorimetry | 435.6 J/K/kg and 437.27 J/K/kg
274.12 K, relaxation calorimetry | 434.33 J/K/kg
276.15 K, Extra sensitive DSC | 437.37 J/K/kg
279.62 K, Extra sensitive DSC | 439.04 J/K/kg
281.12 K, relaxation calorimetry | 440.32 J/K/kg
281.13 K, relaxation calorimetry | 440.12 J/K/kg
281.19 K, relaxation calorimetry | 438.35 J/K/kg
283.09 K, Extra sensitive DSC | 440.42 J/K/kg
285.7 K, Extra sensitive DSC | 441.4 J/K/kg
287.94 K, relaxation calorimetry | 442.87 J/K/kg
287.95 K, relaxation calorimetry | 442.09 J/K/kg
288.02 K, relaxation calorimetry | 441.2 J/K/kg
289.17 K, Extra sensitive DSC | 442.77 J/K/kg
292.64 K, Extra sensitive DSC | 444.15 J/K/kg
295 K, relaxation calorimetry | 443.07 J/K/kg and 444.35 J/K/kg
295.08 K, relaxation calorimetry | 443.46 J/K/kg
295.25 K, Extra sensitive DSC | 444.64 J/K/kg
297.85 K, Extra sensitive DSC | 445.72 J/K/kg
300.45 K, Extra sensitive DSC | 446.61 J/K/kg
301.99 K, relaxation calorimetry | 450.73 J/K/kg
302 K, relaxation calorimetry | 450.83 J/K/kg
302.09 K, relaxation calorimetry | 445.23 J/K/kg
303.06 K, Extra sensitive DSC | 447.88 J/K/kg
305.66 K, Extra sensitive DSC | 448.77 J/K/kg
308.26 K, Extra sensitive DSC | 449.75 J/K/kg
310.87 K, Extra sensitive DSC | 450.44 J/K/kg
313.47 K, Extra sensitive DSC | 451.52 J/K/kg
315.21 K, Extra sensitive DSC | 452.11 J/K/kg
317.81 K, Extra sensitive DSC | 452.3 J/K/kg
320.41 K, Extra sensitive DSC | 453.09 J/K/kg
323.02 K, Extra sensitive DSC | 453.29 J/K/kg
325.62 K, Extra sensitive DSC | 454.17 J/K/kg
328.23 K, Extra sensitive DSC | 455.45 J/K/kg
329.96 K, Extra sensitive DSC | 455.35 J/K/kg
332.56 K, Extra sensitive DSC | 455.84 J/K/kg
335.17 K, Extra sensitive DSC | 456.53 J/K/kg
337.77 K, Extra sensitive DSC | 457.22 J/K/kg
340.38 K, Extra sensitive DSC | 458.2 J/K/kg
342.98 K, Extra sensitive DSC | 459.18 J/K/kg
345.58 K, Extra sensitive DSC | 459.28 J/K/kg
348.19 K, Extra sensitive DSC | 460.46 J/K/kg
350.79 K, Extra sensitive DSC | 461.15 J/K/kg
353.39 K, Extra sensitive DSC | 460.75 J/K/kg
356 K, Extra sensitive DSC | 461.93 J/K/kg
358.6 K, Extra sensitive DSC | 462.72 J/K/kg
